Article PMC6502838, “Low potential enzymatic hydride transfer via highly cooperative and inversely functionalized flavin cofactors” (Nature Communications, 2019)

Target: T1, 2-Naphthoyl-CoA reductase (NCR) (uncultured Desulfobacterium sp., UniProt E1YD54)
T1 construct: gene N47_G38220; Strep-tag fusion, E. coli host, monomer; TIM barrel 19-359, linker 360-400 with [4Fe-4S], FAD domain 401-503 + 626-674, alpha/beta domain 504-625
T1 sequence (E1YD54 1-670): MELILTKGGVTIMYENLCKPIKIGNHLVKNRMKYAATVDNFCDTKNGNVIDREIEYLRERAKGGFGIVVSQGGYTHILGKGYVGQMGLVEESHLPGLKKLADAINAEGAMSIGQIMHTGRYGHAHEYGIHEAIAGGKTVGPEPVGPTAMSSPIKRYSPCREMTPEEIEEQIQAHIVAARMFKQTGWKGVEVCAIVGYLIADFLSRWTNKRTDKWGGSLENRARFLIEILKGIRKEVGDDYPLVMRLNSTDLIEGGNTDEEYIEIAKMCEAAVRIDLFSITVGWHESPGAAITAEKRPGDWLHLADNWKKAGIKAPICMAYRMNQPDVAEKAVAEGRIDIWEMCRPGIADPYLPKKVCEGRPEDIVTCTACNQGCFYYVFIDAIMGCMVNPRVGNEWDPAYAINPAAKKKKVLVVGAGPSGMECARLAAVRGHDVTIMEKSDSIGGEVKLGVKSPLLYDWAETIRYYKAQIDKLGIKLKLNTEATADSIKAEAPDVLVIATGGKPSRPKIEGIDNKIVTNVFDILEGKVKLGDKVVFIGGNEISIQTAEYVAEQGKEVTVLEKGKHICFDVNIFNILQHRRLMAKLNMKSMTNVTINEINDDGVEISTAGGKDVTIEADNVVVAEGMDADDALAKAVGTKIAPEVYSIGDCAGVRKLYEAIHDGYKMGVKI
Assay: X-ray crystal structure, soaked, […] A
Type: binding
Details: crystals soaked with 0.5 mM NCoA, pH 6.5-7.0, 2 h, 4 C; active site, stacked on FMN; incompletely occupied

In the case of `CC(C)(COP(=O)(O)OP(=O)(O)OC[C@H]1O[C@@H](n2cnc3c(N)ncnc32)[C@H](O)[C@@H]1OP(=O)(O)O)[C@@H](O)C(=O)NCCC(=O)NCCSC(=O)c1ccc2ccccc2c1` [NCoA], the “X-ray crystal structure, soaked, 2.2 A” value is reported as “structure in complex with the substrate NCoA and the product DHNCoA were determined”.
